Consider 3 molecules from ChEMBL document CHEMBL5728415, “Heteroaryl-substituted sulfonamide compounds and their use as therapeutic agents” (2021).

In assay [1] the target is Sodium channel protein type 8 subunit alpha (Homo sapiens, UniProt Q9UQD0). Briefly: Sodium Influx Assay (In Vitro Assay): This sodium influx assay employs the use of the cell permeable, sodium sensitive dye ANG2 to quantify sodium ion influx through sodium channels which are maintained in an open state by use of sodium channel modulators. This high throughput sodium influx assay allows for rapid profiling and characterization of sodium channel blockers.In general, Trex HEK293 ….
Sequence of Sodium channel protein type 8 subunit alpha (Q9UQD0 whole entry): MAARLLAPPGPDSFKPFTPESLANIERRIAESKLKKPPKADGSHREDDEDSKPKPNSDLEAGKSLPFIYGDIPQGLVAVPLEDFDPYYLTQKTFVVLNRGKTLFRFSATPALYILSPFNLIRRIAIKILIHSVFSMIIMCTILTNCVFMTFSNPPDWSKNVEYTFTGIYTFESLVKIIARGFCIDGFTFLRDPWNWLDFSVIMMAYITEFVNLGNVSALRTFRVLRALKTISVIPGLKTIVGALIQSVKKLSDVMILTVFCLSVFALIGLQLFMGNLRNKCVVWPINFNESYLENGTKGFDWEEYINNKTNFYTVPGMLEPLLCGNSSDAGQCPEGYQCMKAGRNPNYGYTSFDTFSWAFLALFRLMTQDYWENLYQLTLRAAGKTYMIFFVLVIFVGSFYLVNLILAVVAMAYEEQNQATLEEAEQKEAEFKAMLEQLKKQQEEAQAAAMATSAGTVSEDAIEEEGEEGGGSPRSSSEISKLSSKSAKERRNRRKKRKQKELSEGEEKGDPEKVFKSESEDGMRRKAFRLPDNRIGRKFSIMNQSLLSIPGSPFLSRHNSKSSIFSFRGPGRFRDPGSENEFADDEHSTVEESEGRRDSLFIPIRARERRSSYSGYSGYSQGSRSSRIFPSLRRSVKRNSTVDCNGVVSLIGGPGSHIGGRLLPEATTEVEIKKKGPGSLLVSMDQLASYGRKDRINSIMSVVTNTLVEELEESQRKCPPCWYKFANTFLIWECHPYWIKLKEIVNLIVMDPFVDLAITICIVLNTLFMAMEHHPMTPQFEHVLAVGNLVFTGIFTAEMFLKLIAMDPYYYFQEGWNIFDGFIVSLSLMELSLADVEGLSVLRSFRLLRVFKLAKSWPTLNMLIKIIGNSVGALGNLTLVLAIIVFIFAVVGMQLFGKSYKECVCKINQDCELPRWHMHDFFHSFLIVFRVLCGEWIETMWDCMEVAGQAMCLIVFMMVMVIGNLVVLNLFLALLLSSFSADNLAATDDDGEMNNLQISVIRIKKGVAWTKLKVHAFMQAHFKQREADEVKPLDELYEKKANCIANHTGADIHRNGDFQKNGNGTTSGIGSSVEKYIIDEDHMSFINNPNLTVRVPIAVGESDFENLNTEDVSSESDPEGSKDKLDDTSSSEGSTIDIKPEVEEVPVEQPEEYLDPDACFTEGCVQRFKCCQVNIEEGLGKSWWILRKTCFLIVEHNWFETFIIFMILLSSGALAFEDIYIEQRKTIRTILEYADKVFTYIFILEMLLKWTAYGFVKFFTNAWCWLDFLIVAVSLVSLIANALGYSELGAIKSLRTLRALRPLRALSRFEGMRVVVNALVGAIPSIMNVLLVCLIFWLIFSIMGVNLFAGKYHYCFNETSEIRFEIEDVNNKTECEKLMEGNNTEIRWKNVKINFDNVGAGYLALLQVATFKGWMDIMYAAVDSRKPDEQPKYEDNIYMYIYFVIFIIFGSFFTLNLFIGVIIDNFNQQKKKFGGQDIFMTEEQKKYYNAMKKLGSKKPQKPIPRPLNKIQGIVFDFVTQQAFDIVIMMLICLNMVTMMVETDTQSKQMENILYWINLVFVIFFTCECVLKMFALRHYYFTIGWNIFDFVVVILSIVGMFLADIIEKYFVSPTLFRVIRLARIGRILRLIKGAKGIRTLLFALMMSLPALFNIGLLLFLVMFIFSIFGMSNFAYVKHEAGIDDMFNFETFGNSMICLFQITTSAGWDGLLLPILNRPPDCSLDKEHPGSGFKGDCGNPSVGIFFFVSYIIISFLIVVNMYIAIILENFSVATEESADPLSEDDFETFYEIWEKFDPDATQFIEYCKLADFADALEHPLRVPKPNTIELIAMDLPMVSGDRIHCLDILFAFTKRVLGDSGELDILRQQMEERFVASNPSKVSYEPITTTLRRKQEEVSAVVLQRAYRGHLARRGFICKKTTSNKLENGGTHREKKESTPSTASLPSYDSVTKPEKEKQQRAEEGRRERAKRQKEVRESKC

Assay in assay [2]: as above

As a reminder, the IC50 is the concentration at which inhibition is half-maximal. In assay [1], `Cc1nc(S(=O)(=O)Nc2cscn2)c(F)cc1NCc1c(F)cccc1CN1C2CCC1CC2` gave a half-maximal inhibitory concentration (IC50) of 0.037 µM. Consider `Cc1nc(NCc2c(F)cccc2CN2CCCC2)ccc1S(=O)(=O)Nc1cscn1`, for which, in assay [2], the IC50 came out at 6.18 µM. Same read-out and setting: the result for `Cc1cc(S(=O)(=O)Nc2cccc(F)n2)ncc1NCc1c(F)cccc1CN1CCCC1` reads 28.8 µM.
